Measured values reported in paper PMC7150767, “Monocarboxylate Transporter 6-Mediated Interactions with Prostaglandin F2α: In Vitro and In Vivo Evidence Utilizing a Knockout Mouse Model” (Pharmaceutics, 2020).

Assays:
[1] = target: T1, human monocarboxylate transporter 6 (hMCT6) (Homo sapiens, UniProt O15375); assay: cis-inhibition of [3H]PGF2α uptake in oocytes; type: cell-based
T1 construct: gene SLC16A5
T1 sequence (O15375 1-505): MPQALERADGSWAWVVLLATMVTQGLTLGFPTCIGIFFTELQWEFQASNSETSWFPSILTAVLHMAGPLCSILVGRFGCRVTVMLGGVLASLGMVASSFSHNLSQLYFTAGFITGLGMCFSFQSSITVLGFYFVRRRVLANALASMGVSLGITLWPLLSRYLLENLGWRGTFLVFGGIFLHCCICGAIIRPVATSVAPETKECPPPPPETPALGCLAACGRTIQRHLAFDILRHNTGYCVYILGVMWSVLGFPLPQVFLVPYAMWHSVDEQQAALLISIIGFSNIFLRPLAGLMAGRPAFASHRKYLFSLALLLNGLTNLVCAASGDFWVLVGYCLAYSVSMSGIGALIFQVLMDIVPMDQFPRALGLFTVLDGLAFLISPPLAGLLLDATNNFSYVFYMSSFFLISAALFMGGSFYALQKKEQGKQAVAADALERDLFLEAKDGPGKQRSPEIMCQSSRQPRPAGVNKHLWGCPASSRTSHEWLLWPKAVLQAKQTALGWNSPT

[2] = target: T2, murine monocarboxylate transporter 6 (mMct6) (Mus musculus, UniProt G5E8K6); assay: cis-inhibition of [3H]PGF2α uptake in oocytes, […] ([…] inhibition); type: cell-based
T2 construct: gene Slc16a5; full-length, untagged, cRNA in Xenopus laevis oocytes
T2 sequence (G5E8K6 1-468): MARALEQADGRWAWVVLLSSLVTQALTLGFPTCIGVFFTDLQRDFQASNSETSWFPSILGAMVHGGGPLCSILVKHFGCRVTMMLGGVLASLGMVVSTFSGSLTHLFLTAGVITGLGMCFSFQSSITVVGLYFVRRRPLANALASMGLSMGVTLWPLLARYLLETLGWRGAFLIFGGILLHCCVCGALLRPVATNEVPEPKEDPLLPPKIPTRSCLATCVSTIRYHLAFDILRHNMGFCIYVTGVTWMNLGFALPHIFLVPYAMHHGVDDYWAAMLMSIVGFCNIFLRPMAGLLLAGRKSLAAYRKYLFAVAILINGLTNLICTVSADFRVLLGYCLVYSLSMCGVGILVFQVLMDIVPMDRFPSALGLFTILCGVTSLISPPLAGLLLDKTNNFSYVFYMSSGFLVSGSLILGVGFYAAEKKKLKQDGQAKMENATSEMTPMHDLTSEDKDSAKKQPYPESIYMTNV

[3] = target: T1, human monocarboxylate transporter 6 (hMCT6); assay: cis-inhibition of [3H]PGF2α uptake in oocytes at […]; type: cell-based; conditions: read-out: % inhibition at 10 μM (range over the PGs)
[4] = target: T2, murine monocarboxylate transporter 6 (mMct6); assay: cis-inhibition of [3H]PGF2α uptake in oocytes, […] ([…] inhibition); type: cell-based; remark: listed apart in the source
[5] = substrate: CCCCC[C@H](O)/C=C/[C@@H]1[C@@H](C/C=C\CCCC(=O)O)[C@@H](O)C[C@H]1O; assay: cells, lysate or membranes; type: cell-based, Mus musculus; conditions: pH 7.4
[6] = substrate: CCCCC[C@H](O)/C=C/[C@@H]1[C@@H](C/C=C\CCCC(=O)O)[C@@H](O)C[C@H]1O; assay: cells, lysate or membranes; type: cell-based, Homo sapiens; conditions: pH 7.4

CCCCNc1cc(C(=O)O)cc(S(N)(=O)=O)c1Oc1ccccc1 [bumetanide]
cis-inhibition of [3H]PGF2α uptake in oocytes [1]: Bumetanide and probenecid also inhibited human MCT6-mediated PGF2α uptake
inhibition at 10 µM [2]: ~28%

CCCCC[C@H](O)/C=C/[C@H]1C(=O)C[C@H](O)[C@@H]1C/C=C\CCCC(=O)O [prostaglandin D2]
inhibition at 10 µM [3]: 51 to 74%

CCCCC[C@H](O)/C=C/[C@H]1[C@H](O)CC(=O)[C@@H]1C/C=C\CCCC(=O)O [prostaglandin E2]
inhibition at 10 µM [3]: 51 to 74%

CCCN(CCC)S(=O)(=O)c1ccc(C(=O)O)cc1 [probenecid]
inhibition at 500 µM [4]: ~94%
cis-inhibition of [3H]PGF2α uptake in oocytes [1]: Bumetanide and probenecid also inhibited human MCT6-mediated PGF2α uptake

CCCCC[C@H](O)/C=C/[C@@H]1[C@@H](CC(=O)CCCCC(=O)O)[C@@H](O)C[C@H]1O [6-keto prostaglandin F1α]
inhibition at 10 µM [3]: 51 to 74%

B1: murine monocarboxylate transporter 6 (mMct6) (Mus musculus) (protein)
chain: MARALEQADGRWAWVVLLSSLVTQALTLGFPTCIGVFFTDLQRDFQASNSETSWFPSILGAMVHGGGPLCSILVKHFGCRVTMMLGGVLASLGMVVSTFSGSLTHLFLTAGVITGLGMCFSFQSSITVVGLYFVRRRPLANALASMGLSMGVTLWPLLARYLLETLGWRGAFLIFGGILLHCCVCGALLRPVATNEVPEPKEDPLLPPKIPTRSCLATCVSTIRYHLAFDILRHNMGFCIYVTGVTWMNLGFALPHIFLVPYAMHHGVDDYWAAMLMSIVGFCNIFLRPMAGLLLAGRKSLAAYRKYLFAVAILINGLTNLICTVSADFRVLLGYCLVYSLSMCGVGILVFQVLMDIVPMDRFPSALGLFTILCGVTSLISPPLAGLLLDKTNNFSYVFYMSSGFLVSGSLILGVGFYAAEKKKLKQDGQAKMENATSEMTPMHDLTSEDKDSAKKQPYPESIYMTNV
notes: full-length, untagged, cRNA (NM_001080934.1) in Xenopus laevis oocytes
Km [5]: 40.1 µM

B2: human monocarboxylate transporter 6 (hMCT6) (Homo sapiens) (protein)
chain: MPQALERADGSWAWVVLLATMVTQGLTLGFPTCIGIFFTELQWEFQASNSETSWFPSILTAVLHMAGPLCSILVGRFGCRVTVMLGGVLASLGMVASSFSHNLSQLYFTAGFITGLGMCFSFQSSITVLGFYFVRRRVLANALASMGVSLGITLWPLLSRYLLENLGWRGTFLVFGGIFLHCCICGAIIRPVATSVAPETKECPPPPPETPALGCLAACGRTIQRHLAFDILRHNTGYCVYILGVMWSVLGFPLPQVFLVPYAMWHSVDEQQAALLISIIGFSNIFLRPLAGLMAGRPAFASHRKYLFSLALLLNGLTNLVCAASGDFWVLVGYCLAYSVSMSGIGALIFQVLMDIVPMDQFPRALGLFTVLDGLAFLISPPLAGLLLDATNNFSYVFYMSSFFLISAALFMGGSFYALQKKEQGKQAVAADALERDLFLEAKDGPGKQRSPEIMCQSSRQPRPAGVNKHLWGCPASSRTSHEWLLWPKAVLQAKQTALGWNSPT
notes: pGH19-hMCT6 cRNA in Xenopus laevis oocytes
Km [6]: 246 µM
